# Literature values, collected in patent US20210401766A1, “Method of Using Cannabinoids Encapsulated in Phospholipid Carriers for Transmucosal and Transdermal Administration” (NuVessl, Inc., priority 2018, published 2021).
smiles,measurement,setting,value
"C=C(C)[C@@H]1CCC(C)=C[C@H]1c1c(O)cc(CCCCC)cc1O [CBD, Cannabidiol]",Duration of effects,oral administration,5 to 8 h
same,Bioavailability,oromucosal,approximately 35%
same,Bioavailability (average),smoking and vaporizing,around 40%
same,Bioavailability (range),smoking and vaporizing,2%-56%
same,Length of time CBD remains in the body,smoking and vaporizing,around 3 hours
